Measurements published in ChEMBL document CHEMBL1126314, “A dideazatetrahydrofolate analogue lacking a chiral center at C-6, N-[4-[2-(2-amino-3,4-dihydro-4-oxo-7H-pyrrolo[2,3-d]pyrimidin-5-yl)ethyl]benzoyl]-L-glutamic acid, is an inhibitor of thymidylate synthase” (J Med Chem, 1992).

Key:
Thymidylate synthase = Thymidylate synthase (Mus musculus, UniProt P07607); test: Compound was evaluated for competitive inhibition of recombinant mouse thymidylate synthase
[1] = First-order rate constant of the compound; assay type: ADME
[2] = First-order rate constant was determined; assay type: ADME
L1210 = test: Compound was evaluated for the half-maximal inhibition against mouse L1210 leukemic cell growth; assay type: functional, cell-based
CCRF-CEM = test: Compound was evaluated for the half-maximal inhibition against human CCRF-CEM lymphoblastic leukemic cell growth; assay type: functional, cell-based
[3] = Km was determined; assay type: ADME

Chain of Thymidylate synthase (P07607 whole entry): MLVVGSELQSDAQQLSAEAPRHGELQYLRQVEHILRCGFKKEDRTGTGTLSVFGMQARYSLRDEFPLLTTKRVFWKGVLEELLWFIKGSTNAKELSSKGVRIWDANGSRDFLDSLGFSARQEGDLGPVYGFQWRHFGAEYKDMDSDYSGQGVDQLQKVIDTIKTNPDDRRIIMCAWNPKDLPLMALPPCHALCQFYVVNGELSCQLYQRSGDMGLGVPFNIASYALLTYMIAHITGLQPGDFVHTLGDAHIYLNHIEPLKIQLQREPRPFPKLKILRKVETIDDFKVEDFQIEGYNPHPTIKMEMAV

SMILES | Ki (Thymidylate synthase) | Rate constant [1] | Rate constant [2] | IC50 (L1210) | IC50 (CCRF-CEM) | Km [3]
Nc1nc(O)c2c(n1)NCC(CCc1ccc(C(=O)NC(CCC(=O)O)C(=O)O)cc1)C2 (centres undefined) | 30 nM | 32 | – | – | – | –
Nc1nc(N)c2nc(CNc3ccc(C(=O)N[C@@H](CCC(=O)O)C(=O)O)cc3)cnc2n1 [AMINOPTERIN] | – | – | 10.1 | – | – | –
CN(Cc1cnc2nc(N)nc(N)c2n1)c1ccc(C(=O)N[C@@H](CCC(=O)O)C(=O)O)cc1 [METHOTREXATE] | – | 0.9 | – | – | – | –
Nc1nc2[nH]cc(CCc3ccc(C(=O)N[C@@H](CCC(=O)O)C(=O)O)cc3)c2c(=O)[nH]1 [PEMETREXED] | 340 nM | 400 | – | 22 nM | 16 nM | 0.8 µM
